Assay results: PubChem BioAssay (NCI)
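Grown in 96-well plates, cells were treated for 48 hours with each compound at five concentrations. Insufficient inhibition: endpoint recorded as highest concentration tested. GI50 = concentration required for 50% inhibition of growth. TGI: concentration producing complete growth inhibition.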 Numbered stars: 1 amine (or outer) side, 2 acyl side, 3 side chain; on linkers, the order of the positions; unused ones are H or OH. Bridge positions count the residues as written; N and C are the ends. Square brackets hold non-standard residues; d marks the D form. Peptide text beside a SMILES is read from it. I, II: the chains in the order shown. Actinocin(1to9) = Cc1c2oc3c(C)ccc(C(=O)[*:2])c3nc-2c(C(=O)[*:1])c(N)c1=O; NMeY = CN[CH](Cc1ccc(O)cc1)C(=O)O; Sar = CNCC(=O)O

Legend:
Test in all cases: NCI tumour cell line growth inhibition, 48 h
T-47D breast = tested on: T-47D breast
MDA-N = tested on: MDA-N
M19-MEL melanoma = tested on: M19-MEL melanoma
XF 498 CNS = tested on: XF 498 CNS
DMS 273 small cell lung = tested on: DMS 273 small cell lung
DLD-1 colon = tested on: DLD-1 colon
SNB-78 CNS = tested on: SNB-78 CNS

SMILES | GI50 (T-47D breast) [µM] | TGI (T-47D breast) [µM] | TGI (MDA-N) [µM] | other results
COc1cc(CNc2oc(-c3ccccc3)c(-c3ccccc3)c2C#N)cc(CN2CCN(C)CC2)c1O | 1.91 | 4.17 | – | –
COc1ccc(-c2cc(=O)c3c(O)c(OC)c(OC)c(OC)c3o2)cc1 | – | > 100 | 13 | –
CC[C@H](C)[C@H](NC(=O)c1cccn1C)C(=O)N(C)[C@H](C[C@@H](OC(C)=O)c1nc(C(=O)N[C@@H](Cc2ccccc2)C[C@H](C)C(=O)OC)cs1)C(C)C | 0.0946 | > 33.3 | – | –
Cc1cc(O)c(-c2ccc([C@@H](C)CN(C)C)cc2)c2c1[nH]c(=O)c1sccc12 | 0.309 | 5.19 | – | –
CC(C)(C)OC(=O)Nc1ccc2c(c1)C(NC(=O)Nc1cccc(C#N)c1)CC(C)(C)O2 (stereo not drawn) | 2.52 | 33 | – | –
Nc1cccc2c1C(=O)c1cccc(NC(=O)c3ccccc3)c1C2=O | 1.1 | > 100 | – | –
COc1ccc(CC2C(=O)OC(C)C(NC(=O)c3c4nc5c(C(=O)NC6C(=O)NC(C(C)C)C(=O)N7CCCC7C(=O)N(C)CC(=O)N(C)C(Cc7ccc(OC)cc7)C(=O)OC6C)ccc(C)c5oc-4c(C)c(=O)c3N)C(=O)NC(C(C)C)C(=O)N3CCCC3C(=O)N(C)CC(=O)N2C)cc1 (stereo not drawn) (I: TVP[Sar][NMeY](Me) / II: TVP[Sar][NMeY](Me); ester I:1-I:C, II:1-II:C; linker I:N-II:N via Actinocin(1to9); configuration not given here) | – | – | 0.218 | –
CS(=O)(=O)N(c1cc(-c2ccc3ncnc(Nc4ccc(F)c(Cl)c4)c3c2)cnc1Cl)S(C)(=O)=O | 0.13 | 1.8 | – | –
N#CC1=C(N)NC(=O)NC12Nc1ccccc1N2 | > 100 | > 100 | – | –
Nc1c2ccccc2nc2c(C(=O)Nc3ccc(S(N)(=O)=O)cc3)cccc12 | – | – | – | TGI (M19-MEL melanoma): > 100 µM; TGI (XF 498 CNS): > 100 µM; TGI (DMS 273 small cell lung): > 100 µM; TGI (DLD-1 colon): > 100 µM; TGI (SNB-78 CNS): > 100 µM
C[C@]12C[C@H](O)[C@H]3[C@@H](CCC4=CC(=O)CC[C@@]43C)[C@@H]1CC[C@@H]2c1csc(-c2ccccc2)n1 | – | > 100 | > 100 | –
COC(C)C(O)(C(=O)OCC1=CCN2CCC(O)C12)C(C)(C)O (stereo not drawn) | – | > 100 | > 100 | –
CC/C(=C/c1ccc(OC)cc1OC)[N+](=O)[O-] | 1.72 | 5.06 | – | –
Nc1ccc(/C=C/c2ccc3cccnc3c2)cc1 | – | > 100 | > 100 | –
CC(=O)[O-].N.N.N.N.[Co+3].[O-][Cl+3]([O-])([O-])[O-].[OH3+] | – | – | – | GI50 (DMS 273 small cell lung): > 100 µM; TGI (DMS 273 small cell lung): > 100 µM; GI50 (DLD-1 colon): > 100 µM; TGI (DLD-1 colon): > 100 µM; GI50 (SNB-78 CNS): > 100 µM; TGI (SNB-78 CNS): > 100 µM
CN(N)c1nc(N)c(C#N)c(C#N)c1C#N | – | > 10 | > 10 | –
